Series [1] relates to Bcl-2. The experiment in a line: Apoptotic protein level by ELISA, Bcl-2. It counts as cell-based, human. The following applies: HepG2 cells; for Protein Expression Bcl-2: ELISA, control 15.668 ± 0.53, mean ± SD of triplicate. (In general: ELISA stands for enzyme-linked immunosorbent assay.)
Series [2] has as its system Bax. As to the kind of experiment: Apoptotic protein level by ELISA, Bax. Type of series: cell-based, human. The settings on record: HepG2 cells; for Protein Expression Bax: ELISA, control 71.075 ± 2.762, mean ± SD of triplicate; for Protein Expression Bax (Folds): relative to control (1). The procedure: (§1) To further elucidate the mechanism by which compound 6i induces cell death, the expression levels of key apoptotic proteins were assessed in the HepG2 cell line. […] Specifically, the levels of the pro-apoptotic proteins caspase-3 and Bax were markedly higher in the compound 6i-treated group compared with the control. […] Additional studies are warranted to elucidate the detailed molecular mechanisms underlying the apoptosis-inducing effects of compound 6i and to assess its therapeutic potential in relevant in vivo models.
(§2) Apoptotic protein levels for compound 6i were determined using an ELISA technique for caspase-3, BAX, and Bcl-2, applying a previously reported method.

The subject of series [3] is caspase-3. The experiment in a line: Apoptotic protein level by ELISA, caspase-3. Type of series: cell-based, human. The settings on record: HepG2 cells; for Protein Expression Caspase-3: ELISA, control 99.904 ± 3.88, mean ± SD of triplicate. Here is the method:
as §1, §2

The target of series [4] is EGFR (Homo sapiens, UniProt P00533). As to the kind of experiment: In vitro protein kinase inhibition, EGFR.
The target in series [5] is VEGFR2 (Homo sapiens, UniProt P35968). The experiment in a line: In vitro protein kinase inhibition, VEGFR2. It counts as biochemical. The settings on record: mean ± SD of triplicate. From the text:
[…]. […] […].

Series [6] in a line: MTT in vitro cytotoxicity, normal WI-38. The settings on record: human, WI-38 normal lung fibroblast cells, normal cell line, mean ± SD of triplicate. It counts as cell-based.
The target of series [7] is mTOR (Homo sapiens, UniProt P42345). The experiment in a line: In vitro enzyme inhibition, mTOR.
Series [8] relates to HepG2 (hepatocellular carcinoma cell line). As to the kind of experiment: MTT in vitro cytotoxicity, HepG2. It counts as cell-based, human. The following applies: for IC50: Homo sapiens, HepG2, MTT, mean ± SD of triplicate; for SI (Selectivity Index) HepG2: IC50 of WI-38 / IC50 of HepG2.
The target in series [9] is CDK2 (Homo sapiens, UniProt P24941). As to the kind of experiment: In vitro protein kinase inhibition, CDK2.
The subject of series [10] is cancer cell lines (HCT-116, HepG2, MCF-7). The experiment in a line: MTT in vitro cytotoxicity, summary across the cancer cell line panel. The settings on record: Homo sapiens; summary over HCT-116, HepG2, MCF-7; read-out: IC50 values across the tested cancer cell lines. Type of series: cell-based. The procedure: The cytotoxic activities of compounds 6a-l were assessed using a standard MTT method, which was performed across three different cancer cell line models, namely human colon cancer (HCT-116), hepatocellular carcinoma (HepG2), mammary gland cancer (MCF-7), and normal (WI-38) cell lines. […] […]. Substitution at the 4-position, as in the case of compounds 6d, 6g, and 6j, also seems beneficial, with fluoro (6j) showing the best results. […]. Overall, the cytotoxicity data provide valuable insights into the structure–activity relationships of the synthesized compounds and can guide further optimization efforts to develop potential anticancer agents with improved potency and selectivity.
. The SI values represent the ratio of the IC50 values for the normal WI-38 cell line compared with the respective cancer cell lines, with higher SI values indicating greater selectivity for the cancer cells over normal cells. […]. The cytotoxic potential of compounds 6a-l was evaluated against a panel of cancer cell lines, including HCT-116, HepG2, and MCF-7, as well as a normal cell line, WI-38, using the reported methodology. The cell lines utilized in this study were obtained from the American Type Culture Collection (ATCC) through the Holding Company for Biological Products and Vaccines (VACSERA) in Cairo, Egypt. These included: 1. A human colon cancer cell line (HCT-116); 2. Hepatocellular carcinoma (HepG2)—a liver cancer cell line; 3. Mammary gland breast cancer (MCF-7); and 4. A human lung fibroblast (WI-38)—a normal cell line.

Series [11] has as its target T1, AURKC (Homo sapiens, UniProt Q9UQB9).
T1 sequence (Q9UQB9 1-309): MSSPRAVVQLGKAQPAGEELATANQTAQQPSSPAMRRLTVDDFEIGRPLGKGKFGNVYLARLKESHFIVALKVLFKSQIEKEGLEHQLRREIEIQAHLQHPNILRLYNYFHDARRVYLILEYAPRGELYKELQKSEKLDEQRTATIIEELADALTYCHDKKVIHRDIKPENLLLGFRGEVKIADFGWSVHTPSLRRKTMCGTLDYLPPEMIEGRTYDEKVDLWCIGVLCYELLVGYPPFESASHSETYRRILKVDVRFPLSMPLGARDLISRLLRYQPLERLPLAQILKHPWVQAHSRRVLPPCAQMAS
The experiment in a line: In vitro protein kinase inhibition, AURKC.

The target in series [12] is HDAC1 (Homo sapiens, UniProt Q13547). As to the kind of experiment: In vitro enzyme inhibition, HDAC1. Type of series: biochemical. The following applies: mean ± SD of triplicate; read-out: In Vitro Protein Kinase Inhibition IC50 HDAC1.
For series [13], the system named is HCT-116 (human colon cancer cell line). The experiment in a line: MTT in vitro cytotoxicity, HCT-116. The following applies: for IC50: Homo sapiens, HCT-116, MTT, mean ± SD of triplicate; for SI (Selectivity Index) HCT-116: IC50 of WI-38 / IC50 of HCT-116. It counts as cell-based.
Series [14] deals with MCF-7 (mammary gland breast cancer cell line). As to the kind of experiment: MTT in vitro cytotoxicity, MCF-7. It counts as cell-based, human. The settings on record: for IC50: Homo sapiens, MCF7, MTT, mean ± SD of triplicate; for SI (Selectivity Index) MCF-7: IC50 of WI-38 / IC50 of MCF-7.
Series [15] has as its target Her2 (Homo sapiens, UniProt P04626). As to the kind of experiment: In vitro protein kinase inhibition, Her2.
Series [16] has as its system HepG2 cells. As to the kind of experiment: Cell cycle analysis (propidium iodide flow cytometry). Type of series: cell-based, human. The source says: Following the treatment, the cells were stained with propidium iodide and analyzed using flow cytometry to determine the cell cycle phase distribution. […] The quantitative data further substantiated this observation. […] It led to a marked accumulation of cells in the G1 phase, accompanied by a concomitant reduction in the proportion of cells in the S and G2/M phases. The cell cycle arrest effect observed with compound 6i may be a key mechanistic aspect contributing to its anticancer potential. The observed cell cycle arrest at the G1 phase is a common mechanism of action for many anti-cancer agents, as it can prevent cell division and proliferation, ultimately leading to cell cycle arrest and potentially inducing apoptosis or other forms of cell death.
The cell cycle distribution index (CDI) is a metric that quantifies the rate of cell proliferation, calculated as CDI = (G2/M + S)/[…], where the values represent the percentages of cells in each phase. In this study, the CDI values for the control and compound 6i-treated HepG2 cells were 0.91 and 0.39, respectively. […] Compound 6i was further evaluated for apoptosis analysis in HepG2 cell lines.
Background: A flow cytometer gives signals particle by particle.

Series [17] deals with HepG2 cells. The experiment in a line: Annexin-V/propidium iodide double staining apoptosis assay. It counts as cell-based, human. The settings on record: HepG2 cells treated at IC50 concentration for 24 h. The procedure: To investigate the mode of cell death induced by the synthesized compound 6i, flow cytometry analysis was performed. […] Following the treatment, the cells were double-stained with Annexin V and propidium iodide (PI) to assess the levels of apoptosis and necrosis. The data presented in Table 4 reveal a significant decline in the percentage of viable cells in the compound 6i-treated group (63.93%) compared with the untreated control group (97.58%). […] Additionally, in the late stages of apoptosis, the percentage of apoptotic cells rose from 0.21% in the control group to 9.98% in the compound 6i-treated group. […] The apoptosis levels in the control HepG2 cell lines and the cells treated with compound 6i are shown in the graphical representation provided in Figure 3.
The apoptosis effect of compound 6i was studied using a previously reported method.

Structures are written as SMILES. Bounds are passed on as bounds.

Chain of EGFR (P00533 25-1210): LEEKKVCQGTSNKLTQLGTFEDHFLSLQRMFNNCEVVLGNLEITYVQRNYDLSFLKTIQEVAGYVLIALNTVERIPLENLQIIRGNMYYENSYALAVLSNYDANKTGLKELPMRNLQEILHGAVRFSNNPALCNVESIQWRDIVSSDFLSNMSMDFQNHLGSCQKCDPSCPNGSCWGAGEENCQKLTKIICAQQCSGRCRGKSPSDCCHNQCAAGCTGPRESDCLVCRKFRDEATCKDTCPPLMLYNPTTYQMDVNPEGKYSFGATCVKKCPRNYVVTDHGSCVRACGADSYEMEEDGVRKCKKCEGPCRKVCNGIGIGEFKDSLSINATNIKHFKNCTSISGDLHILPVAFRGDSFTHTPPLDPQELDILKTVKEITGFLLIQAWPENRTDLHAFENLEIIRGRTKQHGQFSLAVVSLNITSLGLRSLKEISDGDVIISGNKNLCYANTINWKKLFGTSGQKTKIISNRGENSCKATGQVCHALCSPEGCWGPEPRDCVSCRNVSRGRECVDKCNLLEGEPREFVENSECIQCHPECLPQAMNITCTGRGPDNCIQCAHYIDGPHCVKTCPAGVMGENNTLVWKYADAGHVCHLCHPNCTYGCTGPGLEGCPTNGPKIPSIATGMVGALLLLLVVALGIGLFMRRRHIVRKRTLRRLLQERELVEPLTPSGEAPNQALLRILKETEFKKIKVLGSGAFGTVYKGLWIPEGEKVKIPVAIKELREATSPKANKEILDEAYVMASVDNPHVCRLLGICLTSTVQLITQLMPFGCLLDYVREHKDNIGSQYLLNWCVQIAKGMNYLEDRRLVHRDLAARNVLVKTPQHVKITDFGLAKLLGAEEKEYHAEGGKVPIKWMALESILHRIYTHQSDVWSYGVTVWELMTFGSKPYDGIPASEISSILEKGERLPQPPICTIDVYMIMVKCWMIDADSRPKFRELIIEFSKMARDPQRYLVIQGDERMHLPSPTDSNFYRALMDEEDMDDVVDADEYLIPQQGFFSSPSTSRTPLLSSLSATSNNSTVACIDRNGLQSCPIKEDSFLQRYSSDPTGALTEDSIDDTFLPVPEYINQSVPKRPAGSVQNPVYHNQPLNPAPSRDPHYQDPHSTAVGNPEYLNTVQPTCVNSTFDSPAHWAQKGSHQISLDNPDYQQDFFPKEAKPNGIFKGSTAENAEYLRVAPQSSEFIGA
Chain of HDAC1 (Q13547 whole entry): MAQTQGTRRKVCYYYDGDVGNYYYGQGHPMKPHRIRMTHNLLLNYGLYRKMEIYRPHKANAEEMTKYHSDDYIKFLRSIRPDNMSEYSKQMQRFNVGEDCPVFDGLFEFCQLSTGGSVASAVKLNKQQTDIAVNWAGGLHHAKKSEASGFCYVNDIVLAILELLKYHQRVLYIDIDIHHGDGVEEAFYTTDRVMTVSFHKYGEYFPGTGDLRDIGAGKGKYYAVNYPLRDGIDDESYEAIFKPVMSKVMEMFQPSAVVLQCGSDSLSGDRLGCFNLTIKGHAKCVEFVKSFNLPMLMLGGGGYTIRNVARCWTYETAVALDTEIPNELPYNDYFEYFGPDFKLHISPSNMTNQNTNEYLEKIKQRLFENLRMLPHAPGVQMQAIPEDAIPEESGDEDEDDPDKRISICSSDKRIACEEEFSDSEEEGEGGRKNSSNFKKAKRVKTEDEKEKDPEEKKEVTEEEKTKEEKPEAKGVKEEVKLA
Chain of Her2 (P04626 23-1255): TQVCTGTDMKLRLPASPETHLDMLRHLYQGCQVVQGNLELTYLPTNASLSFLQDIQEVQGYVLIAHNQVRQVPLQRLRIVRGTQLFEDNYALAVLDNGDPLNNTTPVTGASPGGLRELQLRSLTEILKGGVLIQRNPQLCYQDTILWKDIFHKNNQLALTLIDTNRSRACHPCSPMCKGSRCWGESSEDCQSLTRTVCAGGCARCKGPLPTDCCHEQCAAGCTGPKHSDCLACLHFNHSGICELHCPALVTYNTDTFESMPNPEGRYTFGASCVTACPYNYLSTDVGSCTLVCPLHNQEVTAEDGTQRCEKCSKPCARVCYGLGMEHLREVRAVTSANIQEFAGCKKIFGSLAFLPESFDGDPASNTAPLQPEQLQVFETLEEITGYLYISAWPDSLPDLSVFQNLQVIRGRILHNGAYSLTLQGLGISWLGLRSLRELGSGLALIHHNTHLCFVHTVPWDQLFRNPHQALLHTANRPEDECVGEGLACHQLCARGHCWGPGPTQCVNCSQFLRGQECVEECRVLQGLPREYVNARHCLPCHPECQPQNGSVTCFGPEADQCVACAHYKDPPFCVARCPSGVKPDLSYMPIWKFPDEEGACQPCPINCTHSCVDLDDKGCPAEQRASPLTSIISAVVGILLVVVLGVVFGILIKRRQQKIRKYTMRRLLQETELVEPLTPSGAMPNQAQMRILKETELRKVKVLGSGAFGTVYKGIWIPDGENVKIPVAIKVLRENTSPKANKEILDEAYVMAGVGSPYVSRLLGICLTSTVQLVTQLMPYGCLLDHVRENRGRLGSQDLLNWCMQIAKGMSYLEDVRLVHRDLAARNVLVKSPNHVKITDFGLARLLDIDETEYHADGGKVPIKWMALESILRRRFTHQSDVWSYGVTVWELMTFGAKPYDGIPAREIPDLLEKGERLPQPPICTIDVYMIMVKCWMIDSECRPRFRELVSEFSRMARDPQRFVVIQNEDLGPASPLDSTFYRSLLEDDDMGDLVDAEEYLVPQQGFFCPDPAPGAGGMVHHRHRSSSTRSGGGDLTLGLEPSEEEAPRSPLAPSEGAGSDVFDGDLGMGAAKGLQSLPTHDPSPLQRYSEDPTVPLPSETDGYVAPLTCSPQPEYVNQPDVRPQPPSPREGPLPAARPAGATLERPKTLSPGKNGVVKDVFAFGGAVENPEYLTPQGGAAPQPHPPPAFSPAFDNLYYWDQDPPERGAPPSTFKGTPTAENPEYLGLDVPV
Chain of VEGFR2 (P35968 20-1356): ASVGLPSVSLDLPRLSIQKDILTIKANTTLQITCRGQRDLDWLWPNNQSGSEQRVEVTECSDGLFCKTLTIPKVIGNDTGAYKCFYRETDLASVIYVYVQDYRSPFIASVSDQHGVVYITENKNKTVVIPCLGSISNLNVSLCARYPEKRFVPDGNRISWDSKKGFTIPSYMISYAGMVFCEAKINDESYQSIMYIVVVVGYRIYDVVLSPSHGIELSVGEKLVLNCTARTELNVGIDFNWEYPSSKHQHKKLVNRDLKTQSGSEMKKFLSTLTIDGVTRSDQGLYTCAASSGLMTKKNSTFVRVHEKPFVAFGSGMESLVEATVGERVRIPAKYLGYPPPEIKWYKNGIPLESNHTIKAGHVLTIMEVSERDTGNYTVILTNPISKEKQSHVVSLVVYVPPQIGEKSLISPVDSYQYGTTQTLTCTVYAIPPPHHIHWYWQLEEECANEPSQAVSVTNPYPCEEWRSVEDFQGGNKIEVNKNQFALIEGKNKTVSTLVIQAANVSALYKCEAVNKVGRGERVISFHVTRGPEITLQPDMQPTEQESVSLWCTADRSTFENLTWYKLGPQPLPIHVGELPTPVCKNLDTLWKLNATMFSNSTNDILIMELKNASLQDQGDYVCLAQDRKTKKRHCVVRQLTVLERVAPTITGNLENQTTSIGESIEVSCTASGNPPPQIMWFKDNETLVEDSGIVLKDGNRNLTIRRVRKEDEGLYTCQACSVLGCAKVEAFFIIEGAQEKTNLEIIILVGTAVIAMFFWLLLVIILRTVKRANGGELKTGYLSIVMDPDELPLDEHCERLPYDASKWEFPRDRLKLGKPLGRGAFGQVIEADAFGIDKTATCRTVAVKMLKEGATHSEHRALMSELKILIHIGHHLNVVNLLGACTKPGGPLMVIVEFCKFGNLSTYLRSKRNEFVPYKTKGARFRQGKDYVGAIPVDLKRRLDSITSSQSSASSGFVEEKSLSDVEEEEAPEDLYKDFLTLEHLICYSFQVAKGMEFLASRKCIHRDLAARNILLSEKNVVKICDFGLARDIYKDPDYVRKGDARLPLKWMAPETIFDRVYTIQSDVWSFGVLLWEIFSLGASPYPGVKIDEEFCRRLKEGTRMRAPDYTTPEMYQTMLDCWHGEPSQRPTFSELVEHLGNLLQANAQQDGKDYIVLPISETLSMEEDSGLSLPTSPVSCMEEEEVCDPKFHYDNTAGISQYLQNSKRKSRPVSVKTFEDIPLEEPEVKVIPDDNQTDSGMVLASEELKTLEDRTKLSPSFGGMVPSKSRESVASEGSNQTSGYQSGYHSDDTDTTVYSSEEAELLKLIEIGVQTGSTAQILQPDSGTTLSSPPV

For the molecule `CN[C@@H]1C[C@H]2O[C@@](C)([C@@H]1OC)n1c3ccccc3c3c4c(c5c6ccccc6n2c5c31)C(=O)NC4` [Saurosporine, staurosporine, reference compound], in series [1], the “Protein Expression Bcl-2” value stood at 3.336 ± 0.11 pg/mL. Also, in series [2], the “Protein Expression Bax” value was 386.743 ± 15.03 pg/mL and the “Protein Expression Bax (Folds)” value stood at 5.44 Folds. In addition, in series [3], the “Protein Expression Caspase-3” value was 541.162 ± 21.02 pg/mL. The “Protein Expression Caspase-3 (Folds)” value in series [3] (relative to control (1)) is listed as 5.4 Folds.
What is called IC50 is the concentration at which inhibition is half-maximal. Usually melting point stands for the temperature, or range, at which the solid turns liquid. Regarding `O=C(N/N=C/c1ccc(F)cc1)c1ccc(NCc2nc3ccccc3[nH]2)cc1` [6j, (E)-4-(((1H-benzo[d]imidazol-2-yl)methyl)amino)-N′-(4-fluorobenzylidene)benzohydrazide], the melting point stood at 291 °C. In series [4], this molecule had an IC50 of 166.4 ± 0.008 nM. This molecule also showed a half-maximal inhibitory concentration (IC50) in [5] of 307.2 ± 0.011 nM. In series [6], half-maximal inhibition (IC50) was put at 39000 ± 2300 nM. In [7], it took 1305 ± 0.044 nM to reach half-maximal inhibition (IC50). Besides, in series [8], the 50% inhibitory concentration (IC50) is 14000 ± 1200 nM and the “SI (Selectivity Index) HepG2” value turned out to be 2.78. In series [9], this molecule gave an IC50 of 1448 ± 0.062 nM. Also, the 50% inhibitory concentration (IC50) in series [10] was less than 30000 nM. Also, in series [11], the IC50 came out at 589.4 ± 0.022 nM. Further, in series [12], the IC50 was 473.3 ± 0.016 nM. Besides, in series [13], the IC50 stood at 18700 ± 1400 nM and the “SI (Selectivity Index) HCT-116” value amounted to 2.08. Besides, in series [14], the half-inhibitory concentration (IC50) stood at 8310 ± 700 nM and the “SI (Selectivity Index) MCF-7” value was 4.70. This molecule showed an IC50 in series [15] of 204.7 ± 0.009 nM.
Take `O=C(N/N=C/c1cccc(F)c1)c1ccc(NCc2nc3ccccc3[nH]2)cc1` [6i, (E)-4-(((1H-benzo[d]imidazol-2-yl)methyl)amino)-N′-(3-fluorobenzylidene)benzohydrazide]: the IC50 in series [4] was determined as 30.1 ± 0.03 nM; in series [5], 172.2 ± 0.006 nM; in series [6] it was 56500 ± 3000 nM; in series [7], 152 ± 0.005 nM; in series [8] it was 9390 ± 800 nM; in [9] it was 364 ± 0.011 nM. The IC50 in series [10] was 7820 to 10200 nM; in series [11], 74.5 ± 0.003 nM; in [12], 96.6 ± 0.003 nM; in [13], 13400 ± 1200 nM; in [14] it was 11600 ± 900 nM; in [15], 28.3 ± 0.001 nM. Further, the “Bcl-2 level, fold lower compared with the control” value in series [1] was 7.5 fold. In addition, in [1], the “Protein Expression Bcl-2” value is 2.073 ± 0.07 pg/mL. Moreover, in series [1] (relative to control (1)), the “Protein Expression Bcl-2 (Folds)” value was 0.132 Folds. In series [8], the “SI (Selectivity Index) HepG2” value was 6.01. In addition, the “Cell Cycle Distribution Index (CDI)” value in series [16] (CDI = (G2/M + S)/(G0-G1), HepG2, IC50 concentration, 24 h, control 0.91) was 0.39. In addition, in [16] (HepG2 cells treated at IC50 concentration for 24 h, control 12.84), the “DNA Content (%) %G2/M” value is on record as 2.68%. The “DNA Content (%) %S” value in series [16] (HepG2 cells treated at IC50 concentration for 24 h, control 34.77) is reported as 25.19%. Further, in [16] (HepG2 cells treated at IC50 concentration for 24 h, control 52.39), the “DNA Content (%) %G0-G1” value amounted to 72.13%. For the same molecule, the “SI (Selectivity Index) HCT-116” value in series [13] came to 4.20. Further, the “Protein Expression Bax” value in series [2] was 513.731 ± 19.96 pg/mL. Moreover, the “Protein Expression Bax (Folds)” value in [2] is listed as 7.22 Folds. The “Protein Expression Caspase-3” value in series [3] is 388.497 ± 15.09 pg/mL. In series [14], the “SI (Selectivity Index) MCF-7” value was found to be 4.85. Also, in series [17] (control 0.21), the “Apoptosis Late” value stood at 9.98%. For the same molecule, in series [17] (control 0.61), the “Apoptosis Early” value was determined as 22.07%. In series [17] (control 1.6), this molecule came in with a Necrosis of 4.02%. For the same molecule, in series [17] (control 97.58), the “Alive Cell (%)” value is on record as 63.93%.

Values taken from publication PMC11279404, “Discovery of 1H-benzo[d]imidazole-(halogenated)Benzylidenebenzohydrazide Hybrids as Potential Multi-Kinase Inhibitors” (Pharmaceuticals, 2024).
